Experimental data published in paper PMC6744458, “A ribose-functionalized NAD^+ with unexpected high activity and selectivity for protein poly-ADP-ribosylation” (Nature Communications, 2019).

Columns and labels:
Type in all cases: biochemical
human NRK1 = molecular target: T1, human NRK1 (Homo sapiens, UniProt Q9NWW6); assay: HPLC conversion; conditions: […] NR6, […] ATP, […] MgCl2, pH […], room temperature
T1 construct: gene NMRK1; full length, C-terminal His6, pET-28a, E. coli BL21 (DE3)
T1 sequence (Q9NWW6 1-199): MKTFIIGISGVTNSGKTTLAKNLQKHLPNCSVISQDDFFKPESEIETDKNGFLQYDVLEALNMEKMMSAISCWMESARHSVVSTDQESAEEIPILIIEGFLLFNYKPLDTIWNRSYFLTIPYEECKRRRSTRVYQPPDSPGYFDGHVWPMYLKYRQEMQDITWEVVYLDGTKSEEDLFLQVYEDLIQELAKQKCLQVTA

[1] = molecular target: T2, catalytic domain of human PARP10 (Homo sapiens, UniProt Q53GL7); assay: automodification, click biotin labelling, streptavidin-HRP immunoblot; conditions: […] analogue, […] MgCl2, pH […]
T2 construct: catalytic domain residues 809-1017, N-terminal His6, E. coli BL21 (DE3)
T2 sequence (Q53GL7 809-1017): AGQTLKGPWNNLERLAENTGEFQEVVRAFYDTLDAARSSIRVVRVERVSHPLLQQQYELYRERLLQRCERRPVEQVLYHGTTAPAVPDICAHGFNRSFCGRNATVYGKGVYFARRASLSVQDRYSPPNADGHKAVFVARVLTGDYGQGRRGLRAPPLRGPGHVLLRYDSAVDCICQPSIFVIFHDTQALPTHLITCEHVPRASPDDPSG

[2] = molecular target: T3, catalytic domain of human PARP5a (Homo sapiens, UniProt O95271); assay: as above; conditions: […] analogue, […] MgCl2, pH […]
T3 construct: gene TNKS; catalytic domain residues 1093-1327, C-terminal His6, E. coli BL21 (DE3)
T3 sequence (O95271 1093-1327): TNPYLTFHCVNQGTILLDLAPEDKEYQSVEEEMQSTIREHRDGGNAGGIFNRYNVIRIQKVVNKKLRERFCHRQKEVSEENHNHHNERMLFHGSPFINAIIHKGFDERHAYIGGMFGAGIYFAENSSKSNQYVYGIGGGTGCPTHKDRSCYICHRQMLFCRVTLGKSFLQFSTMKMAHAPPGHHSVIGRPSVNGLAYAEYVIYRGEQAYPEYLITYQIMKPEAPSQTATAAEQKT

Row | Compound | HPLC conversion (human NRK1) | automodification, click biotin labelling, streptavidin-HRP immunoblot [1] | automodification, click biotin labelling, streptavidin-HRP immunoblot [2]
1 | [N-]=[N+]=N[C@H]1[C@@H](O)[C@H]([n+]2cccc(C(N)=O)c2)O[C@@H]1CO [NR6] | NRK1 that could only catalyze conversion of NR5 and NR6 |  | 
2 | C#Cc1nc(N)c2ncn([C@@H]3O[C@H](COP(=O)(O)OP(=O)([O-])OC[C@H]4O[C@@H]([n+]5cccc(C(N)=O)c5)[C@H](O)[C@@H]4O)[C@@H](O)[C@H]3O)c2n1 [2-a-NAD^+, 2-alkyne-NAD^+] |  | 6-a-NAD^+ and 2-a-NAD^+ that displayed strong automodification activities for both enzymes | 6-a-NAD^+ and 2-a-NAD^+ that displayed strong automodification activities for both enzymes
3 | C#CCNc1ncnc2c1ncn2[C@@H]1O[C@H](COP(=O)(O)OP(=O)([O-])OC[C@H]2O[C@@H]([n+]3cccc(C(N)=O)c3)[C@H](O)[C@@H]2O)[C@@H](O)[C@H]1O [6-a-NAD^+, 6-alkyne-NAD^+] |  | 6-a-NAD^+ and 2-a-NAD^+ that displayed strong automodification activities for both enzymes | 6-a-NAD^+ and 2-a-NAD^+ that displayed strong automodification activities for both enzymes
